This note sets out measurements from patent US12152019B2, “Arylalkyl pyrazole compounds as indoleamine 2,3-dioxygenase inhibitors” (Merck Sharp & Dohme LLC, priority 2018, dated 2024).

Structures are written as SMILES.

The target in the first assay is T1, IDO1 (Homo sapiens, UniProt P14902). As to the kind of experiment: IDO1 Cellular Assay in HeLa Cells Stimulated with IFNγ. It is filed as cell-based. The following applies: HeLa Cell Potency, IC50 (nM).
T1 sequence (P14902 whole entry): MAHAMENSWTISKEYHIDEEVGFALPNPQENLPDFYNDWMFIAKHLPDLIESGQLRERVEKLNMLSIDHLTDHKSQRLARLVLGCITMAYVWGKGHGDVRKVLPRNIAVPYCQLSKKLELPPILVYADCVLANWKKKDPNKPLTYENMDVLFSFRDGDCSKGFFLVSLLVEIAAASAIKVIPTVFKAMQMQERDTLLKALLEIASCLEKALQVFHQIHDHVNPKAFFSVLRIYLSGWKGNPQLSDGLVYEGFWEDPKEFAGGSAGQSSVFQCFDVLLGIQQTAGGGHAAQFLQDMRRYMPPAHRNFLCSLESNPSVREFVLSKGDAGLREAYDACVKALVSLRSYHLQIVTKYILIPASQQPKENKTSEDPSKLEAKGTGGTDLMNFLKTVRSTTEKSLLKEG
As for `Cc1cccc(N2CCC(CCn3nc(C(=O)N4CCCC4)c4ccccc43)CC2)c1C` [Example 103], the IC50 – broadly, the concentration needed to halve the response being measured – came out at 15.4 nM.

For the next assay, the target named is T1, IDO1. Nature of the assay: IDO1 Human Whole Blood Assay. The following applies: Human Whole Blood Potency, IC50 (nM), LPS and IFNγ 100 ng/mL, overnight (18 h), kynurenine by LC/MS/MS. It is filed as cell-based. How it is done: IDO1 Human Whole Blood Assay Compounds to be tested were serially diluted in ten 3-fold steps in DMSO starting from 10 mM. 3 μL of compound dilutions or DMSO alone were then dispensed from the dilution plate into a polypropylene 96-well assay plate containing 97 μL of RPMI using an Echo 555 acoustic liquid handler (Labcyte). LPS and IFNγ was prepared in RPMI to a 10× of final conc. (1000 ng/mL), final concentration is 100 ng/mL. […] 240 μL of blood was transferred to each of the wells of a v-bottom 96 well plate. 30 μL of compound was transferred from intermediate dilution plate, and incubated for 15 min. 30 μL from stimulants was then transferred to blood and mixed thoroughly. Plate was covered with breathable membrane and incubated at 37° C. for overnight (18 h). […] Plasma was diluted with RPMI in 1:1 ratio and proteins were precipitated out with two volume of Acetonitrile. The plates were centrifuged at 4000×G for 60 min. 20 μL of supernatant was carefully transferred to a 384 well plate contain 40 μL of 0.1% formic acid in water and analyzed by LC/MS/MS. LC/MS/MS analyses were performed using Thermo Fisher's LX4-TSQ Quantum Ultra system. This system consists of four Agilent binary high-performance liquid chromatography (HPLC) pumps and a TSQ Quantum Ultra triple quadrupole MS/MS instrument. For each sample, 5 μL were injected onto an Atlantis T3 column (2.1 mm×150 mm, 3 μm particle size) from Waters. The mobile phase gradient pumped at 0.8 mL/min was used to elute the analytes from the column at 25° C. The elution started at 0% B increasing linearly to 25% B at 6.5 min, holding at 25% for 1 min, re-equilibrating to 10 min. Mobile phase A consisted of 0.1% formic acid in water. Mobile phase B consisted of 0.1% of formic acid in acetonitrile. Data was acquired in positive mode using a HESI interface. The operational parameters for the TSQ Quantum Ultra instrument were a spray voltage of 4000 V, capillary temperature of 380° C., vaporizer temperature 400° C., shealth gas 60 arbitrary units, Aux gas 20 arbitrary units, tube lens 85 and collision gas 1.2 mTorr. SRM chromatograms of kynurenine (Q1: 209.2>Q3:94.0) and internal standard (Q1: 215.3>Q3:98.2) were collected for 90 sec. The peak area was integrated by Xcalibur Quan software. […] Compounds were titrated and IC50's were calculated by 4 parameter sigmoidal curve fitting formula.
As for `Cc1cccc(N2CCC(CCn3nc(C(=O)N4CCCC4)c4ccccc43)CC2)c1C` [Example 103], inhibition was half-maximal at 1030 nM (IC50).

The same assay, now with this note: LPS and IFNγ 100 ng/mL, overnight (18 h), kynurenine by LC/MS/MS, read-out: Human Whole Blood Potency, IC50.
Consider `Cc1c(Cl)cccc1O[C@H]1CC[C@@H](CCn2nc(C(=O)N3C[C@@H](C)O[C@@H](C)C3)c3c2CCC3)CC1` [Example 53, (1-(2-((1s,4S)-4-(3-chloro-2-methylphenoxy)cyclohexyl)ethyl)-1,4,5,6-tetrahydrocyclopenta[c]pyrazol-3-yl)((2R,6S)-2,6-dimethylmorpholino)methanone], for which the concentration for half-maximal inhibition (IC50) came out at 822 nM. On the same count and under the same terms, as for `Cc1ccc(Cl)c(O[C@H]2CC[C@@H](CCn3nc(C(=O)N4CCN(C(=O)CO)CC4)c4c3CCC4)CC2)c1` [Example 57, 1-(4-(1-(2-((1s,4s)-4-(2-chloro-5-methylphenoxy)cyclohexyl)ethyl)-1,4,5,6-tetrahydrocyclopenta[c]pyrazole-3-carbonyl)piperazin-1-yl)-2-hydroxyethan-1-one], the figure is 517 nM. On the same count and under the same terms, then `Cc1ccc(Cl)c(O[C@H]2CC[C@@H](CCn3nc(C(=O)N4CCC(F)(CO)CC4)c4c3CCC4)CC2)c1` [Example 58, (1-(2-((1s,4s)-4-(2-chloro-5-methylphenoxy)cyclohexyl)ethyl)-1,4,5,6-tetrahydrocyclopenta[c]pyrazol-3-yl)(4-fluoro-4-(hydroxymethyl)piperidin-1-yl)methanone], with 538 nM. As to `CC(=O)NC1CCN(C(=O)c2nn(CC[C@H]3CC[C@@H](Oc4ccccc4C)CC3)c3c2CCC3)CC1` [Example 61, N-(1-(1-(2-((1s,4s)-4-(2-methylphenoxy)cyclohexyl)ethyl)-1,4,5,6-tetrahydrocyclopenta[c]pyrazole-3-carbonyl)piperidin-4-yl)acetamide], the IC50 came out at 30.6 nM. Consider `CC(=O)NC1CCN(C(=O)c2nn(CC[C@H]3CC[C@@H](Oc4cnccc4C)CC3)c3c2CCC3)CC1` [Example 64, N-(1-(1-(2-((1s,4s)-4-((4-methylpyridin-3-yl)oxy)cyclohexyl)ethyl)-1,4,5,6-tetrahydrocyclopenta[c]pyrazole-3-carbonyl)piperidin-4-yl)acetamide], for which the concentration for half-maximal inhibition (IC50) came out at 215 nM. As to `CC(=O)NC1CCN(C(=O)c2nn(CC[C@H]3CC[C@@H](Oc4ccccc4C(F)(F)F)CC3)c3c2CCC3)CC1` [Example 65, N-(1-(1-(2-((1s,4s)-4-(2-(trifluoromethyl)phenoxy)cyclohexyl)ethyl)-1,4,5,6-tetrahydrocyclopenta[c]pyrazole-3-carbonyl)piperidin-4-yl)acetamide], the IC50 amounted to 130 nM. Still for that read-out and setting: as for `CC(=O)NC1CCN(C(=O)c2nn(CC[C@H]3CC[C@@H](Oc4nccc(C)c4C#N)CC3)c3c2CCC3)CC1` [Example 66, N-(1-(1-(2-((1s,4s)-4-((3-cyano-4-methylpyridin-2-yl)oxy)cyclohexyl)ethyl)-1,4,5,6-tetrahydrocyclopenta[c]pyrazole-3-carbonyl)piperidin-4-yl)acetamide], the figure is 153 nM; as for `CC(=O)NC1CCN(C(=O)c2nn(CC[C@H]3CC[C@@H](Oc4ccc(C)nc4C)CC3)c3c2CCC3)CC1` [Example 67, N-(1-(1-(2-((1s,4s)-4-((2,6-dimethylpyridin-3-yl)oxy)cyclohexyl)ethyl)-1,4,5,6-tetrahydrocyclopenta[c]pyrazole-3-carbonyl)piperidin-4-yl)acetamide], 209 nM. On the same count and under the same terms, then `CC(=O)NC1CCN(C(=O)c2nn(CC[C@H]3CC[C@@H](Oc4cnc(C)nc4C)CC3)c3c2CCC3)CC1` [Example 68, N-(1-(1-(2-((1s,4s)-4-((2,4-dimethylpyrimidin-5-yl)oxy)cyclohexyl)ethyl)-1,4,5,6-tetrahydrocyclopenta[c]pyrazole-3-carbonyl)piperidin-4-yl)acetamide], with 517 nM; and `CC(=O)NC1CCN(C(=O)c2nn(CC[C@H]3CC[C@@H](Oc4ccccc4Cl)CC3)c3c2CCC3)CC1` [Example 70, N-[1-[1-[2-[4-(2-chlorophenoxy)cyclohexyl]ethyl]-5,6-dihydro-4H-cyclopenta[c]pyrazole-3-carbonyl]-4-piperidyl]acetamide], with 161 nM; and `CC(=O)NC1CCN(C(=O)c2nn(CC[C@H]3CC[C@@H](Oc4ncccc4C)CC3)cc2C2CC2)CC1` [Example 74, N-(1-(4-cyclopropyl-1-(2-((1s,4s)-4-((3-methylpyridin-2-yl)oxy)cyclohexyl)ethyl)-1H-pyrazole-3-carbonyl)piperidin-4-yl)acetamide], with 178 nM. Same read-out and setting: as for `CC(=O)NC1CCN(C(=O)c2nn(C[C@@H]3C[C@@H](Oc4ccc(Cl)cn4)CCO3)c3c2CC(F)(F)CC3)CC1` [Example 77, 6-{3-[4-(acetylamino)piperidine-1-carbonyl]-5,5-difluoro-4,5,6,7-tetrahydro-1H-indazol-1-yl}-1,5-anhydro-3-O-(5-chloropyridin-2-yl)-2,4,6-trideoxy-D-erythro-hexitol], the figure is 136 nM; as for `Cc1cccnc1O[C@H]1CC[C@@H](CCn2nc(C(=O)N3CC[C@H](O)[C@H](F)C3)c3c2C[C@H]2C[C@@H]32)CC1` [Example 83, [(3R,4S)-3-fluoro-4-hydroxypiperidin-1-yl] [(3bR,4aR)-1-(2-{cis-4-[(3-methylpyridin-2-yl)oxy]cyclohexyl}ethyl)-3b,4,4a,5-tetrahydro-1H-cyclopropa[3,4]cyclopenta [1,2-c]pyrazol-3-yl] methanone], 110 nM. In the case of `Cc1cccnc1O[C@H]1CC[C@@H](CCn2nc(C(=O)N3CCC(O)CC3)c3c2C[C@H](C(F)F)CC3)CC1` [Example 87, [(6R)-6-(difluoromethyl)-1-(2-{cis-4-[(3-methylpyridin-2-yl)oxy]cyclohexyl}ethyl)-4,5,6,7-tetrahydro-1H-indazol-3-yl](4-hydroxypiperidin-1-yl)methanone], the IC50 amounted to 736 nM. For the compound `CC(=O)NC1CCN(C(=O)c2nn(CCN3CCN(c4cccc(C)c4C)CC3)c3c2[C@@H]2C[C@@H]2C3)CC1` [Example 100, N-(1-((3bR,4aR)-1-(2-(4-(2,3-dimethylphenyl)piperazin-1-yl)ethyl)-3b,4,4a,5-tetrahydro-1H-cyclopropa[3.4]cyclopenta[1,2-c]pyrazole-3-carbonyl)piperidin-4-yl)acetamide], the concentration for half-maximal inhibition (IC50) was found to be 247 nM. As for `CC(=O)NC1CCN(C(=O)c2nn(CCN3CCN(c4cccc(Cl)c4C)CC3)c3c2[C@@H]2C[C@@H]2C3)CC1` [Example 102, N-(1-((3bR,4aR)-1-(2-(4-(3-chloro-2-methylphenyl)piperazin-1-yl)ethyl)-3b,4,4a,5-tetrahydro-1H-cyclopropa[3,4]cyclopenta[1,2-c]pyrazole-3-carbonyl)piperidin-4-yl)acetamide], the IC50 came to 261 nM.
